Source: patent US10213449B2, “Compositions and methods for treating medulloblastoma” (The Board of Trustees of the Leland Stanford Junior …, priority 2016, dated 2019)
“Also recorded” adds a separate entry of the source.

Columns and labels:
[1] = system: Hh signaling in Sufu−/− mouse embryonic fibroblasts; assay: RT-qPCR of Gli1 in Sufu−/− MEFs (epistasis study); assay type: cell-based
Description: (§1) Epistasis studies were next performed to determine where in the hedgehog pathway CK2 acts. The effect of TBB was examined: (i) in NIH 3T3s stimulated with SAG, a SMO agonist, (ii) in Sufu−/− mouse embryonic fibroblasts (MEF), and (iii) in NIH 3T3 cells overexpressing GLI2 (FIG. 3d-3f).
(§2) Sufu^−/− MEFs (conditional deletion of exons 4-8) were kindly provided by Pao-Tien Chang (UCSF). SAG (S7779), GDC-0449 (Vismodegib, S1082) and CX-4945 (Silmitasertib, S2248) was purchased from SelleckChem.com. TBB was purchased from EMD (218697). Shh-N conditional medium was made using a HEK 293 cell line that stably secretes ShhN as previously described. Myc-GL12-DN (17649, pCS2-MT-GLI2-deltaN) plasmid was purchased from Addgene (Cambridge, Mass., USA). […]
(§3) NIH3T3s or SUFU−/− MEFs were plated in 6 well plates at 400,000 cells/well in 10% FBS media constituted of DMEM (Invitrogen11960-069) supplemented with 10% FBS (Hyclone Labs SH30070.02), pen/strep (Life Technologies 15140-122), sodium pyruvate (Invitrogen 11360-070) and glutamax (Invitrogen 35050-061). […] RNA was quantified on a nanodrop spectrophotometer (nanoddrop technologies ND-2000C). Transcript quantification was performed using a TaqMan RNA-to-Ct 1-Step Kit (Life technologies, 4392656) and the Applied Biosystems 7500 RT-PCR system as per the manufacturer's instructions. […]

[2] = system: Medulloblastoma cell lines (MB53, MB55 and MB21 cells); assay: Acquired resistance in medulloblastoma cell lines; assay type: cell-based, mouse; settings: TBB 50 uM
Procedure: Medulloblastoma cell lines (MB53, MB55 and MB21 cells) were cultured in Neurobasal (Life Technologies 10888-022)+B27 supplement (Invitrogen 17504044)+DMSO (0.1%), CX-4945 (10 uM) or TBB (50 uM). […] Primer sequences are provided in supplemental table 5.

Gli2 = Gli2 stability; assay type: cell-based, mouse
Procedure: as §1
Gli2ΔN cells were lysed with RIPA buffer (sc-24948, Santa Cruz Biotechnology) supplemented with Halt Protease & Phosphatase Inhibitor (Thermo #1861218) for 30 min on ice and lysates were cleared by centrifugation at 13000 rpm, 15 min at 4° C. Supernatants were incubated with 6× Lamelli sample buffer (10570021-1, BioWorld) at 95° C. for 5 min. The samples were then separated with a 7% SDS-PAGE gel and immunoblotted with anti-Gli2 (AF3635-SP, R&D) and anti-β-tubulin (ab6046, Abcam).

[3] = system: Hh signaling in NIH 3T3 cells overexpressing GLI2 (HA-Gli2ΔN); assay: RT-qPCR of Gli1 in NIH 3T3 cells expressing Gli2ΔN (epistasis study); assay type: cell-based, mouse; settings: 3T3 cells with forced expression of HA-Gli2ΔN
Description: as §1, §2, §3

Brc1c(Br)c(Br)c2[nH]nnc2c1Br [TBB, 4,5,6,7-tetrabromo-2H-benzotriazole]
Gli1 mRNA / Gli transcript levels [1]: substantially decreased; also recorded: dose dependent loss of Gli1 expression | surviving cells after 2 weeks of culture with drug [2]: MB55 TBB treated (50 uM) cells remained | GLI2 protein driven off the CMV promoter-expression vector (Gli2; Gli2ΔN cells after TBB treatment): no decrease | endogenous, full length Gli2 mRNA levels (Gli2; after TBB treatment): decreases | Gli1 mRNA levels [3]: inhibited; also recorded: dose dependent loss of Gli1 expression
